Tested on: alopecia mouse model
Test: Hair growth promotion test in mice with alopecia (testosterone propionate model)
Type: in vivo, C57BL/6 mice
Settings: for growth of hairs and hair follicles compared to positive control drug group (in words): daily dose 1.5 mg, FIG. 3; for Number of hair follicles (X ± SD): day 18, per field (×100), HE staining, topical once daily for 16 days; for Hair length (X ± SD): day 18, topical once daily for 16 days, testosterone propionate alopecia mice
Procedure: The compounds of the present disclosure were tested for their hair growth-promoting effects on an alopecia mouse model.
C57BL/6 mice (purchased from SPF (Beijing) Biotechnology Co., Ltd., production license No.: SCXK (Beijing) 2019-0010), test compounds (prepared by the method of the present disclosure), rosin (Shanghai YuanYe Bio-Technology Co., Ltd., lot No. Y18M10C83144), liquid paraffin (Shanghai YuanYe Bio-Technology Co., Ltd., lot No.: Z22S11Y125555), chloral hydrate (Sinopharm Chemical Reagent Co., Ltd., lot No.: 20190823, a 2% chloral hydrate solution was prepared by using a 0.9% sodium chloride solution before use), testosterone propionate (Aladdin Reagent (Shanghai) Co., Ltd., lot No.: T101368, a 0.5% testosterone propionate solution was prepared by using an a soybean oil for injection before use), soybean oil for injection (Liaoning Shinsun Pharmaceutical Co., Ltd., lot No.: NMPA Approval No. H21024303), paraformaldehyde (Xilong Scientific Co., Ltd., lot No.: 1705022), a 0.9% sodium chloride solution (Jiangsu Huai'an Shuanghe Pharmaceutical Co., Ltd., lot No.: 210322-3C), an electronic balance (Beijing Sartorius Scientific Instruments Co., Ltd., model: BS224 S; GZX-9140MBE), and a digital display electric heating constant temperature air blast drying oven (Shanghai Boxun Medical Biological Instrument Corp.).
8-week-old male C57BL/6 mice were selected and injected with 2% chloral hydrate (400 mg/kg) for anesthesia. Equal amounts of rosin and paraffin were weighed out, heated, and mixed well. The mixture was applied on the front back of the mice in an area of about 2 cm×2.5 cm. After the mixture was cooled to be hard, the solidified hair was torn off by tweezers gently.
Qualified C57BL/6 mice (3 mice per group) were randomly assigned to a blank group, a model group, a positive control drug group (7.5% clascoterone group), and test groups (including 0.3% compound 8 group and 0.3% compound 7 group). Mice in the blank group were coated with 0.1 mL of normal saline in the depilated area every morning (1 time a day for 17 consecutive days); mice in the model group were coated with 0.1 mL of 0.5% testosterone propionate solution in the depilated area every morning (1 time a day, starting on the first day, for 17 consecutive days), and with 0.5 mL of the control solvent in the depilated area every afternoon (1 time a day, starting on the second day, for 16 consecutive days); mice in the positive control drug group were coated with 0.1 mL of 0.5% testosterone propionate solution in the depilated area every morning (1 time a day, starting on the first day, for 17 consecutive days), and with 0.5 mL of 7.5% clascoterone solution in the depilated area every afternoon (1 time a day, starting on the second day, for 16 consecutive days); and mice in the test groups were coated with 0.1 mL of 0.5% testosterone propionate solution in the depilated area every morning (1 time a day, starting on the first day, for 17 consecutive days), and with 0.5 mL of 0.3% test compound solution in the depilated area every afternoon (1 time a day, starting on the second day, for 16 consecutive days). The formula of the test compound solution was 0.3% test compound, 40% DMSO, 30% ethanol, and the balance of water; the formula of the control solvent was 40% DMSO, 30% ethanol, and the balance of water; the formula of the positive control drug group was 7.5% clascoterone, 40% DMSO, 30% ethanol, and the balance of water. The hair regrowth in the depilated area of the mice in each group was observed and photographed 16 days after the start of topical administration of the test compound solution.
On day 18 of the test, 5 new hairs were pulled out from the back depilated area of each mouse in each group, the lengths of the hairs were measured using a vernier caliper, and the lengths of the hairs of the mice in each group were counted. The skin of the depilated area of the mice in each group was cut out, and hematoxylin-eosin staining (HE staining) was performed. […]

COc1ccc(/C=C/C(=O)C2(C(=O)/C=C/c3ccc(OC)c(OC)c3)CCC(=O)CC2)cc1OC [Compound 7]
growth of hairs and hair follicles compared to positive control drug group (in words): better than that of the positive control drug group
Number of hair follicles (X ± SD): 95.600 ± 26.091
Hair length (X ± SD): 3.850 ± 0.009 mm

COc1ccc(/C=C/C(=O)C2(C(=O)/C=C/c3ccc(OC)c(OC)c3)CCC(F)(F)CC2)cc1OC [Compound 8]
growth of hairs and hair follicles compared to positive control drug group (in words): better than that of the positive control drug group
Number of hair follicles (X ± SD): 116.733 ± 35.809
Hair length (X ± SD): 4.493 ± 0.024 mm

Reference: patent US20250295609A1, “COMPOUND HAVING ANTI-ANDROGEN RECEPTOR ACTIVITY, AND USE THEREOF” (NANJING MINOVA PHARMACEUTICAL CO., LTD., priority 2022, published 2025)
